Results published in patent US4999374A, “Veterinary treatment” (priority 1987, dated 1991).
Where “and” joins values, the source holds several entries; their conditions need not be identical. Equal entries are not always repeated.

Columns and labels:
Assay type in all cases: in vivo, mice (strain MF-1)
T. hyodysenteriae [1] = assay: Comparative efficacy of M139603 and salinomycin in experimentally infected mice (Example 3, Table 3); conditions: 30 ppm feed
Description: (§1) The infection leads to varying degrees of caecitis, the lesions of which are apparent in animals killed on or about the sixth day post-infection. Caecal specimens examined by bacteriological culture techniques applicable for enumeration of organisms reveal the presence of high populations of T.hyodysenteriae. This disease-model was used in experiments to compare the efficacy of M139603 with that of salinomycin, lasalocid and monensin in suppressing the infection.
(§2) In this study, the efficacy of M139603 was tested at 25 ppm feed and that of monensin (Eli Lilly) at 50 or 100 ppm. Groups of infected mice, five per group, were offered the drugs in the feed on five continuous days before killing. Caecal materials were subjected to bacteriological examination to enumerate the populations of viable treponemes per gram of material. […] The group mean in respect of the unmedicated groups was 7.9 cfu/g.
In this study, the efficacy of M139603 was tested at 30 ppm and that of salinomycin at 30, 40 or 60 ppm feed. The mouse-groups and test-procedureswere simi-ar to those applied under Example 2 above.

T. hyodysenteriae [2] = assay: Comparative efficacy of M139603 and lasalocid in experimentally infected mice (Example 4, Table 4); conditions: 20 ppm feed
Description: as §1, §2
In this study, the efficacy of M139603 was tested at 20 ppm feed and that of lasalocid (Hoffman la Roche) at 20, 40 and 80 ppm. The test procedures were similar to those above except for the size of the inoculum of T.hyodysenteriae (1.2×10^7 cfu) used in infecting each mouse. […] The mean (log10) counts of viable treponemes found in the caecal contents of the various groups were: 2.5 cfu/g caecum (139603 at 20 ppm), 7.35 cfu (lasalocid at 20 ppm), 7.45 cfu (lasalocid at 40 ppm), 3.81 cfu (lasalocid at 80 ppm) and 8.50 cfu (unmedicated control).

T. hyodysenteriae [3] = assay: Comparative efficacy of M139603 and monensin in experimentally infected mice (Example 2, Table 2); conditions: 25 ppm feed
Description: as §1, §2

## CO[C@@H](C)[C@H]1C[C@H](C)[C@H]([C@@H](C)/C=C/[C@@H]2CC[C@@H](C)[C@H](/C(=C/[C@H]3CCC[C@@H](C)[C@@H]3[C@H](C)C(=O)C3=C(O)COC3=O)CO)O2)O1 [Analogue M139603, tetronasin]
T. hyodysenteriae [1]
  Suppression of infection: suppressed the infection
T. hyodysenteriae [1]; 5 days, group mean
  Mean (log10) viable treponemes per gram caecum & contents: 0 log10 per gram
T. hyodysenteriae [1]; 5 days, individual mice
  Viable treponemes per gram caecum & contents: negative
T. hyodysenteriae [2]
  Complete suppression of infection: completely suppressed the infection in two mice
  Efficacy compared with lasalocid at 80 ppm: greater than that of lasalocid at 80 ppm
T. hyodysenteriae [2]; 5 days, group mean (table)
  Mean (log10) viable treponemes per gram caecal contents: 1.62 log10 per gram
T. hyodysenteriae [2]; 5 days, individual mice
  Viable treponemes per gram caecal contents: 0 per gram and 4.3 × 10^3 per gram and 3.0 × 10^2 per gram and 1.0 × 10^2 per gram
T. hyodysenteriae [2]; log10
  Mean (log10) count of viable treponemes in caecal contents: 2.5 cfu/g caecum
T. hyodysenteriae [2]; other three mice
  Reduction of T. hyodysenteriae populations: markedly reduced
T. hyodysenteriae [3]
  Suppression of infection: suppressed the infection
T. hyodysenteriae [3]; 5 days, group mean
  Mean (log10) viable treponemes per gram caecum & contents: 0 log10 per gram
T. hyodysenteriae [3]; 5 days, individual mice, limit of detection <1.0 × 10^2
  Viable treponemes per gram caecum & contents: negative
